ChEMBL document CHEMBL1152855, “Regioselective synthesis of dispiro[1H-indene-2,3'-pyrrolidine-2',3''-[3H]indole]-1,2''(1''H)-diones of potential anti-tumor properties” (2009)

Tests used:
[1] = system: EKVX; assay: Growth inhibition of human EKVX cells at 10 uM after 48 hrs by sulforhodamine B assay; assay type: functional; details: values are per cent of control
[2] = system: HOP-62; assay: Growth inhibition of human HOP62 cells at 10 uM after 48 hrs by sulforhodamine B assay; assay type: functional; details: HOP-62, 48 h, values are per cent of control
[3] = system: HOP-92; assay: Growth inhibition of human HOP92 cells at 10 uM after 48 hrs by sulforhodamine B assay; assay type: functional; details: HOP-92, 48 h, read-out: GI
[4] = system: NCI-H226; assay: Growth inhibition of human NCI-H226 cells at 10 uM after 48 hrs by sulforhodamine B assay; assay type: functional; details: NCI-H226, 48 h, values are per cent of control
[5] = system: NCI-H23; assay: Growth inhibition of human NCI-H23 cells at 10 uM after 48 hrs by sulforhodamine B assay; assay type: functional; details: NCI-H23, 48 h, values are per cent of control
[6] = system: NCI-H322M; assay: Growth inhibition of human NCI-H322M cells at 10 uM after 48 hrs by sulforhodamine B assay; assay type: functional; details: values are per cent of control
[7] = system: NCI-H522; assay: Growth inhibition of human NCI-H522 cells at 10 uM after 48 hrs by sulforhodamine B assay; assay type: functional; details: NCI-H522, 48 h, values are per cent of control
[8] = system: HCC 2998; assay: Growth inhibition of human HCC2998 cells at 10 uM after 48 hrs by sulforhodamine B assay; assay type: functional; details: HCC 2998, 48 h, values are per cent of control
[9] = system: HCT-15; assay: Growth inhibition of human HCT15 cells at 10 uM after 48 hrs by sulforhodamine B assay; assay type: functional; details: HCT-15, 48 h, values are per cent of control
[10] = system: HT-29; assay: Growth inhibition of human HT-29 cells at 10 uM after 48 hrs by sulforhodamine B assay; assay type: functional; details: HT-29, 48 h, values are per cent of control
[11] = system: NCI/ADR-RES; assay: Growth inhibition of human NCI/ADR-RES cells at 10 uM after 48 hrs by sulforhodamine B assay; assay type: functional; details: values are per cent of control
[12] = system: T47D; assay: Growth inhibition of human T47D cells at 10 uM after 48 hrs by sulforhodamine B assay; assay type: functional; details: values are per cent of control
[13] = system: OVCAR-3; assay: Growth inhibition of human OVCAR-3 cells at 10 uM after 48 hrs by sulforhodamine B assay; assay type: functional; details: OVCAR-3, 48 h, values are per cent of control
[14] = system: OVCAR-4; assay: Growth inhibition of human OVCAR4 cells at 10 uM after 48 hrs by sulforhodamine B assay; assay type: functional; details: OVCAR-4, 48 h, values are per cent of control
[15] = system: OVCAR-8; assay: Growth inhibition of human OVCAR8 cells at 10 uM after 48 hrs by sulforhodamine B assay; assay type: functional; details: OVCAR-8, 48 h, read-out: GI
[16] = system: SK-OV-3; assay: Growth inhibition of human SKOV3 cells at 10 uM after 48 hrs by sulforhodamine B assay; assay type: functional; details: SK-OV-3, 48 h, values are per cent of control
[17] = system: K562; assay: Growth inhibition of human K562 cells at 10 uM after 48 hrs by sulforhodamine B assay; assay type: functional; details: K562, 48 h, values are per cent of control
[18] = system: MOLT-4; assay: Growth inhibition of human MOLT4 cells at 10 uM after 48 hrs by sulforhodamine B assay; assay type: functional; details: MOLT-4, 48 h, values are per cent of control
[19] = system: RPMI-8226; assay: Growth inhibition of human RPMI8226 cells at 10 uM after 48 hrs by sulforhodamine B assay; assay type: functional; details: RPMI-8226, 48 h, read-out: GI
[20] = system: SR; assay: Growth inhibition of human SR cells at 10 uM after 48 hrs by sulforhodamine B assay; assay type: functional; details: values are per cent of control
[21] = system: 786-0; assay: Growth inhibition of human 786-0 cells at 10 uM after 48 hrs by sulforhodamine B assay; assay type: functional; details: 786-0, 48 h, values are per cent of control
[22] = system: ACHN; assay: Growth inhibition of human ACHN cells at 10 uM after 48 hrs by sulforhodamine B assay; assay type: functional; details: values are per cent of control
[23] = system: SN12C; assay: Growth inhibition of human SN12C cells at 10 uM after 48 hrs by sulforhodamine B assay; assay type: functional; details: values are per cent of control
[24] = system: Rattus norvegicus; assay: Antiinflammatory activity against carrageenan-induced paw edema in Wister albino rat assessed as inhibition of edema at 50 mg/kg, ip administered 1 hr prior to carrageenan challenge measured after 4 hrs relative to control; assay type: functional; details: route intraperitoneal
[25] = system: Rattus norvegicus; assay: Antiinflammatory activity against carrageenan-induced paw edema in Wister albino rat assessed as inhibition of edema at 50 mg/kg, ip administered 1 hr prior to carrageenan challenge measured after 4 hrs relative to indomethacin; assay type: functional; details: route intraperitoneal
[26] = system: LOX IMVI; assay: Growth inhibition of human LOXIMVI cells at 10 uM after 48 hrs by sulforhodamine B assay; assay type: functional; details: values are per cent of control
[27] = system: M14; assay: Growth inhibition of human M14 cells at 10 uM after 48 hrs by sulforhodamine B assay; assay type: functional; details: M14, 48 h, values are per cent of control
[28] = system: SK-MEL-5; assay: Growth inhibition of human SK-MEL-5 cells at 10 uM after 48 hrs by sulforhodamine B assay; assay type: functional; details: SK-MEL-5, 48 h, values are per cent of control
[29] = system: UACC-257; assay: Growth inhibition of human UACC257 cells at 10 uM after 48 hrs by sulforhodamine B assay; assay type: functional; details: UACC-257, 48 h, values are per cent of control
[30] = system: UACC-62; assay: Growth inhibition of human UACC62 cells at 10 uM after 48 hrs by sulforhodamine B assay; assay type: functional; details: UACC-62, 48 h, values are per cent of control
[31] = system: PC-3; assay: Growth inhibition of human PC3 cells at 10 uM after 48 hrs by sulforhodamine B assay; assay type: functional; details: PC-3, 48 h, values are per cent of control
[32] = system: SF-268; assay: Growth inhibition of human SF268 cells at 10 uM after 48 hrs by sulforhodamine B assay; assay type: functional; details: SF-268, 48 h, values are per cent of control
[33] = system: SF-539; assay: Growth inhibition of human SF539 cells at 10 uM after 48 hrs by sulforhodamine B assay; assay type: functional; details: SF-539, 48 h, values are per cent of control
[34] = system: SNB-19; assay: Growth inhibition of human SNB19 cells at 10 uM after 48 hrs by sulforhodamine B assay; assay type: functional; details: SNB-19, 48 h, values are per cent of control
[35] = system: SNB-75; assay: Growth inhibition of human SNB75 cells at 10 uM after 48 hrs by sulforhodamine B assay; assay type: functional; details: SNB-75, 48 h, values are per cent of control
[36] = system: U-251; assay: Growth inhibition of human U251 cells at 10 uM after 48 hrs by sulforhodamine B assay; assay type: functional; details: U-251, 48 h, values are per cent of control
[37] = system: Rattus norvegicus; assay: Antiinflammatory activity against carrageenan-induced paw edema in Wister albino rat assessed as inhibition of edema at 50 mg/kg, ip administered 1 hr prior to carrageenan challenge measured after 2 hrs relative to control; assay type: functional; details: route intraperitoneal
[38] = system: Rattus norvegicus; assay: Antiinflammatory activity against carrageenan-induced paw edema in Wister albino rat assessed as inhibition of edema at 50 mg/kg, ip administered 1 hr prior to carrageenan challenge measured after 3 hrs relative to control; assay type: functional; details: route intraperitoneal
[39] = system: TK-10; assay: Growth inhibition of human TK10 cells at 10 uM after 48 hrs by sulforhodamine B assay; values are per cent of control; details: TK-10, 48 h

Row | SMILES | growth, % of control at 10 µM [1] [%] | growth, % of control at 10 µM [2] [%] | inhibition of growth at 10 µM [3] [%] | growth, % of control at 10 µM [4] [%] | growth, % of control at 10 µM [5] [%] | growth, % of control at 10 µM [6] [%] | growth, % of control at 10 µM [7] [%] | growth, % of control at 10 µM [8] [%] | growth, % of control at 10 µM [9] [%] | growth, % of control at 10 µM [10] [%] | growth, % of control at 10 µM [11] [%] | growth, % of control at 10 µM [12] [%] | growth, % of control at 10 µM [13] [%] | growth, % of control at 10 µM [14] [%] | inhibition of growth at 10 µM [15] [%] | growth, % of control at 10 µM [16] [%] | growth, % of control at 10 µM [17] [%] | growth, % of control at 10 µM [18] [%] | inhibition of growth at 10 µM [19] [%] | growth, % of control at 10 µM [20] [%] | other results
1 | [3H]N1C(=O)[C@@]2(c3ccccc31)N(C)C[C@@H](c1ccc(Cl)cc1)[C@@]21Cc2ccccc2C1=O | 52.5 | 87.5 | 50.2 | 73.7 | 75 | 104 | 73.9 | 95.7 | 82.5 | 73.8 | 64 | 81.8 | 78.6 | 74.5 | 69.2 | 91 | 58.5 | 57 | 36.6 | 167 | growth, % of control at 10 µM [21]: 88.9%; growth, % of control at 10 µM [22]: 80.5%; growth, % of control at 10 µM [23]: 79.5%; inhibition in vivo at 50 mg/kg [24]: 15.6%; activity relative to indomethacin [25]: 32%; growth, % of control at 10 µM [26]: 65.2%; growth, % of control at 10 µM [27]: 82.9%; growth, % of control at 10 µM [28]: 112%; growth, % of control at 10 µM [29]: 34.5%; growth, % of control at 10 µM [30]: 45.8%; growth, % of control at 10 µM [31]: 36.5%; growth, % of control at 10 µM [32]: 90%; growth, % of control at 10 µM [33]: 107%; growth, % of control at 10 µM [34]: 89.9%; growth, % of control at 10 µM [35]: 61.1%; growth, % of control at 10 µM [36]: 87.7%; inhibition in vivo at 50 mg/kg [37]: 28.4%; inhibition in vivo at 50 mg/kg [38]: 18.9%; growth, % of control at 10 µM [39]: 144%
2 | [3H]C([3H])([3H])N1C(=O)[C@@]2(c3ccccc31)N(C)C[C@@H](c1cccs1)[C@@]21Cc2ccccc2C1=O | 107 | 99.9 | 69.2 | 85.7 | 92 | 89.3 | 94.9 | 104 | 108 | 97.5 | 98.5 | 101 | 100 | 100 | 64 | 103 | 72.5 | 72.2 | 87.9 | 72.5 | growth, % of control at 10 µM [21]: 106%; growth, % of control at 10 µM [22]: 98.4%; growth, % of control at 10 µM [23]: 105%; inhibition in vivo at 50 mg/kg [24]: 12.9%; activity relative to indomethacin [25]: 27%; growth, % of control at 10 µM [26]: 85.3%; growth, % of control at 10 µM [27]: 104%; growth, % of control at 10 µM [28]: 112%; growth, % of control at 10 µM [29]: 52.6%; growth, % of control at 10 µM [30]: 75.3%; growth, % of control at 10 µM [31]: 70.3%; growth, % of control at 10 µM [32]: 101%; growth, % of control at 10 µM [33]: 112%; growth, % of control at 10 µM [34]: 96.2%; growth, % of control at 10 µM [35]: 79%; growth, % of control at 10 µM [36]: 102%; inhibition in vivo at 50 mg/kg [37]: 10.8%; inhibition in vivo at 50 mg/kg [38]: 9.1%; growth, % of control at 10 µM [39]: 149%
